{"source": "patent US20140227173A1", "about": "“CANCER TREATMENT WITH GAMMA-SECRETASE INHIBITORS” (The Johns Hopkins University, priority 2006, published 2014)", "key": {"Panc-1": {"system": "Panc-1", "assay": "Colony formation in soft agar (clonogenicity)", "format": "cell-based, human", "details": "colony counts at two weeks", "excerpt": "Specificity of the RNA interference is confirmed by downregulation of Notch1 transcript levels with the specific siRA, but not with the scrambled controls. […] Bar graphs represent colony counts at two weeks, with mean and standard deviations calculated from triplicate experiments.\nBar graphs represent colony counts at two weeks, with mean and standard deviations calculated from triplicate experiments."}, "MB2": {"system": "MB2", "assay": "Nestin immunocytochemistry, nestin-positive fraction", "format": "cell-based", "details": "2 μM, 48 hours"}, "[1]": {"system": "panel of 10 human pancreatic cancer cell lines", "assay": "MTT growth assay", "format": "cell-based", "details": "96 hours; dosages of 2, 5, and 10 μM"}, "Akt": {"system": "Akt", "assay": "Akt phosphorylation and cleaved Caspase 3 (Western blot) in DAOY medulloblastoma cells", "format": "cell-based", "protocol": "(§1) (A) Increase of cleaved Caspase 3 and loss of Akt phosphorylation is induced by 0.4 uMor higher levels of GSI-18, while overall levels of Akt and GAPDH are unchanged in DAOY medulloblastoma cells. (B) Cell death in 2 uM GSI-18 is reduced in a representative subclone of DAOY expressing activated Akt as compare to vector transfected cells. (C) Loss of Akt phosphorylation and activation of Caspase3 cleavage is induced by 2 μM or higher levels of GSI-18, while overall levels of Akt and GAPDH are unchanged in GBM neurosphere cells.\n(§2) It has previously been shown that Akt is a critical effector of Notch-regulated survival and growth outside the brain (26, 27). Therefore, it was examined whether Akt was also a mediator of the pro-survival and pro-growth effects of Notch in brain tumors. GSI-18 blocks the phosphorylation of Akt required for its activation at concentrations as low as 0.4 μM (FIG. 7F). […] Thus the pro-survival effects of Notch signaling in MB appear to be mediated at least in part by Akt.\nQuantitative RT PCR for Notch1, Notch2 and Hes1 was performed as previously described (29), with all reactions normalized to actin (Applied Biosystems, Foster City, Calif.). Commercially available Assay on Demand Taqman primers and probes were used to measure mRNA for Nestin, Bmi1, Tuj1 and GABRA6. Western blots contained 20 μg of protein per lane on a 10% Tris-glycine SDS-PAGE gel (Invitrogen). […]"}, "[2]": {"system": "GBM neurosphere line HSR-GBM1a", "assay": "CD133 expression in GBM neurosphere culture", "format": "cell-based", "details": "2 μM", "protocol": "(§3) (A, B) CD133 is expressed in GBM neurosphere line HSR-GBM1a. (C) The total cell number was decreased upon GSI-18 treatment for 48 h in this line and in the subclones of the line. […] (E) Protein expression of Hes1, a Notch pathway target gene, was reduced upon GSI-18 treatment in GBM neurosphere cells.\n(§4) It has been shown that the Notch signaling pathway regulates normal stem cells in the Central Neural System (CNS), and that GBMs contain cancer stem cells (CSCs) with higher Notch activity (Cancer Research, 64:7011-21, 2004; Cancer Cell, 9:391-403, 2006). However, it has not been known if Notch pathway blockade could target CSCs in GBM. […] In the present study, we used GBM neurospheres to examine the effects of Notch pathway blockade in GBM. […] Furthermore, overexpression of an active form of Notch2 (NICD2) increases tumor growth in vitro."}, "DAOY [3]": {"system": "DAOY", "assay": "Double immunolabeling nestin / Ki67 (proliferation)", "format": "cell-based", "details": "2 μM, 48 hours"}, "DAOY [4]": {"system": "DAOY", "assay": "Nestin immunocytochemistry, strongly nestin-positive fraction", "format": "cell-based", "details": "2 μM, 48 hours"}, "[5]": {"system": "GBM neurosphere line HSR-GBM1a", "assay": "Growth of GBM neurospheres in vitro (total cell number)", "format": "cell-based", "protocol": "as §3, §4"}, "[6]": {"system": "DAOY expressing activated Akt", "assay": "Apoptosis and growth in DAOY subclones expressing constitutively active Akt", "format": "cell-based", "protocol": "as §1, §2\nThe DAOY, PFSK, D283 and D425 Med cell lines were obtained from the American Type Culture Collection. The low-passage MB line MB2 was derived from a tumor resected at Johns Hopkins Hospital. For treatment studies, cell were plated and allowed to grow overnight in MEM (Invitrogen, Carlsbad, Calif.) containing 10% FBS, then media was replaced the next morning with low serum (0.5% FBS) MEM containing GSI dissolved in DMSO. RNA and protein extractions, and all cell-based assays, were performed 48 hours after drug application unless otherwise noted. […] Cell mass was measured using CellTITER assays according to the manufacturer's instructions (Promega, Madison, Wis.). Cell number and viability were assessed using the Guava PCA and Viacount reagent according to instructions (Guava Technologies, Heyward, Calif.). Soft agar assays were performed as previously described (15) and scored either manually after 4 weeks or using as automated reader after 6 weeks. […] Soft agar assays were performed as previously described, with colonies counted using an automated reader (15)."}, "GBM20913": {"system": "GBM20913", "assay": "Survival of mice bearing intracranial xenografts of pretreated GBM neurosphere cells", "format": "in vivo", "details": "vs vehicle (DMSO) treated cells"}, "DAOY [7]": {"system": "DAOY", "assay": "Apoptosis by cleaved caspase 3 immunofluorescence in nestin-positive and nestin-negative cells", "format": "cell-based", "details": "2 μM, 48 hours"}}, "note": "Entries after “also recorded” stand apart in the source; their conditions may differ."}
{"smiles": "O=S(=O)(NC1C2CCC1Cc1ccccc1C2)c1cccs1", "note": "(stereo not drawn) [GSI-18, [11-endo]-N-(5,6,7,8,9,10-hexahydro-6,9-methanobenzo[α][8]annulen-11-yl)-thiophene-2-sulfonamide]", "values": [{"measurement": "clonogenicity, colony formation in soft agar", "setting": "Panc-1", "value": "significant inhibition of clonogencity"}, {"measurement": "nestin-positive fraction", "setting": "MB2", "value": "significant reduction"}, {"measurement": "in vitro growth measured by MTT assays", "setting": "[1]", "value": "modest to minimal effects on growth"}, {"measurement": "levels inducing increase of cleaved Caspase 3 and loss of Akt phosphorylation", "setting": "Akt; DAOY medulloblastoma cells", "value": "≥ 0.4", "unit": "µM"}, {"measurement": "concentrations blocking the phosphorylation of Akt", "setting": "Akt; MB cells", "value": "≥ 0.4", "unit": "µM"}, {"measurement": "CD133 expression in the whole culture", "setting": "[2]", "value": "significantly reduced; also recorded: reduces expression of CD133"}, {"measurement": "fraction of Ki67 positive cells in nestin-negative subpopulation", "setting": "DAOY [3]", "value": "changed only slightly"}, {"measurement": "proliferation (Ki67-positive cells) in nestin-positive subpopulation", "setting": "DAOY [3]", "value": "significant reduction in the proliferation"}, {"measurement": "fold reduction of strongly nestin-positive fraction", "setting": "DAOY [4]; p<0.01", "value": 4, "unit": "fold"}, {"measurement": "strongly nestin-positive fraction after treatment", "setting": "DAOY [4]; untreated 10%", "value": 2.4, "unit": "%"}, {"measurement": "total cell number", "setting": "[5]; 48 h, HSR-GBM1a and subclones", "value": "decreased"}, {"measurement": "tumor growth in vitro", "setting": "[5]; GBM neurospheres, 2 μM", "value": "inhibits tumor growth in vitro"}, {"measurement": "cell death vs vector transfected cells", "setting": "[6]; 2 uM, representative subclone of DAOY expressing activated Akt", "value": "reduced"}, {"measurement": "apoptotic rate on exposure", "setting": "[6]; MB cells stably transfected with constitutively active Akt, 2 μM", "value": "not significantly increased"}, {"measurement": "inhibition of cell growth in Akt-transfected subclones", "setting": "[6]; two DAOY subclones with constitutively active Akt, data not shown", "value": "partially rescued"}, {"measurement": "survival of mice with intracranial xenografts from pretreated cells", "setting": "GBM20913", "value": "prolonged survival; also recorded: longer survival"}, {"measurement": "increase of apoptotic rate in nestin-positive cells (putative CSC)", "setting": "DAOY [7]", "value": "over 10 fold"}]}
